Data from patent US10597388B2, “Pyridazinone herbicides” (FMC CORPORATION, priority 2014, dated 2020).

Tests used:
Format in all cases: in vivo
[1] = system: blackgrass (Alopecurus myosuroides); test: Test C greenhouse herbicide test, pre- and postemergence
From the text: (§1) Seeds of plant species selected from blackgrass (Alopecurus myosuroides), ryegrass, Italian (Italian ryegrass, Lolium multiflorum), wheat (winter wheat, Triticum aestivum), galium (catchweed bedstraw, Galium aparine), corn (Zea mays), large crabgrass, large (large crabgrass, Digitaria sanguinalis), foxtail, giant (giant foxtail, Setaria faberii), johnsongrass (Sorghum halepense), lambsquarters (Chenopodium album), morningglory (Ipomoea coccinea), nutsedge, yellow (yellow nutsedge, Cyperus esculentus), pigweed (Amaranthus retroflexus), ragweed (common ragweed, Ambrosia elatior), soybean (Glycine max), barnyardgrass (Echinochloa crus-galli), oilseed rape (Brassica napus), waterhemp (common waterhemp, Amaranthus rudis), and velvetleaf (Abutilon theophrasti) were planted into a blend of loam soil and sand and treated preemergence with test chemicals formulated in a non-phytotoxic solvent mixture which included a surfactant.
(§2) At the same time, plants selected from these crop and weed species and also chickweed (common chickweed, Stellaria media), kochia (Kochia scoparia), and oat, wild (wild oat, Avena fatua), were planted in pots containing Redi-Earth® planting medium (Scotts Company, 14111 Scottslawn Road, Marysville, Ohio 43041) comprising spaghnum peat moss, vermiculite, wetting agent and starter nutrients and treated with postemergence applications of test chemicals formulated in the same manner. Plants ranged in height from 2 to 18 cm (1- to 4-leaf stage) for postemergence treatments. Treated plants and controls were maintained in a greenhouse for 13 to 15 d, after which time all species were compared to controls and visually evaluated. Plant response ratings, summarized in Table C, are based on a scale of 0 to 100 where 0 is no effect and 100 is complete control. A dash (-) response means no test result.

corn (Zea mays) = test: as above
From the text: as §1, §2

[2] = system: crabgrass, large (large crabgrass, Digitaria sanguinalis); test: as above
From the text: as §1, §2

[3] = system: foxtail, giant (giant foxtail, Setaria faberii); test: as above
From the text: as §1, §2

[4] = system: johnsongrass (Sorghum halepense); test: as above
From the text: as §1, §2

[5] = system: lambsquarters (Chenopodium album); test: as above
From the text: as §1, §2

[6] = system: morningglory (Ipomoea coccinea); test: as above
From the text: as §1, §2

[7] = system: oilseed rape (Brassica napus); test: as above
From the text: as §1, §2

[8] = system: pigweed (Amaranthus retroflexus); test: as above
From the text: as §1, §2

[9] = system: ragweed (common ragweed, Ambrosia elatior); test: as above
From the text: as §1, §2

[10] = system: ryegrass, Italian (Italian ryegrass, Lolium multiflorum); test: as above
From the text: as §1, §2

soybean (Glycine max) = test: as above
From the text: as §1, §2

[11] = system: velvetleaf (Abutilon theophrasti); test: as above
From the text: as §1, §2

[12] = system: waterhemp (common waterhemp, Amaranthus rudis); test: as above
From the text: as §1, §2

kochia (Kochia scoparia) = test: Test C greenhouse herbicide test, postemergence
From the text: as §2

[13] = system: oat, wild (wild oat, Avena fatua); test: Test C greenhouse herbicide test, postemergence
From the text: as §2

[14] = Postemergence, 31 g ai/ha, 0 to 100 scale (0 no effect, 100 complete control)
[15] = Postemergence, 125 g ai/ha, scale 0 to 100, 0 is no effect, 100 is complete control
[16] = Postemergence, 250 g ai/ha, scale 0 to 100, 0 no effect, 100 complete control, 13 to 15 d
[17] = postemergence, 62 g ai/ha, scale 0 to 100, 0 no effect, 100 complete control

Compound: CC(=O)Oc1c(C)nn(C)c(=O)c1-c1c(C)oc2ccc(C)cc12 [Compound 14, 5-(acetyloxy)-4-(2,5-dimethyl-3-benzofuranyl)-2,6-dimethyl-3(2H)-pyridazinone]
- Blackgrass plant response rating [1, 14]: 0
- Plant response rating, Blackgrass [1, 15]: 5
- Plant response rating, Blackgrass [1, 16]: 20
- Blackgrass plant response rating [1, 17]: 0
- Corn plant response rating (corn (Zea mays); [14]): 0
- Plant response rating, Corn (corn (Zea mays); [15]): 0
- Plant response rating, Corn (corn (Zea mays); [16]): 5
- Corn plant response rating (corn (Zea mays); [17]): 0
- Crabgrass, Large plant response rating [2, 14]: 5
- Plant response rating, Crabgrass, Large [2, 15]: 30
- Plant response rating, Crabgrass, Large [2, 16]: 35
- Crabgrass, Large plant response rating [2, 17]: 5
- Foxtail, Giant plant response rating [3, 14]: 20
- Plant response rating, Foxtail, Giant [3, 15]: 50
- Plant response rating, Foxtail, Giant [3, 16]: 50
- Foxtail, Giant plant response rating [3, 17]: 45
- Johnsongrass plant response rating [4, 14]: 0
- Plant response rating, Johnsongrass [4, 15]: 0
- Plant response rating, Johnsongrass [4, 16]: 5
- Johnsongrass plant response rating [4, 17]: 0
- Lambsquarters plant response rating [5, 14]: 80
- Plant response rating, Lambsquarters [5, 15]: 80
- Plant response rating, Lambsquarters [5, 16]: 90
- Lambsquarters plant response rating [5, 17]: 80
- Morningglory plant response rating [6, 14]: 65
- Plant response rating, Morningglory [6, 15]: 100
- Plant response rating, Morningglory [6, 16]: 100
- Morningglory plant response rating [6, 17]: 85
- Oilseed Rape plant response rating [7, 14]: 0
- Plant response rating, Oilseed Rape [7, 15]: 0
- Plant response rating, Oilseed Rape [7, 16]: 0
- Oilseed Rape plant response rating [7, 17]: 0
- Pigweed plant response rating [8, 14]: 55
- Plant response rating, Pigweed [8, 15]: 70
- Plant response rating, Pigweed [8, 16]: 90
- Pigweed plant response rating [8, 17]: 70
- Ragweed plant response rating [9, 14]: 15
- Plant response rating, Ragweed [9, 15]: 50
- Plant response rating, Ragweed [9, 16]: 98
- Ragweed plant response rating [9, 17]: 90
- Ryegrass, Italian plant response rating [10, 14]: 40
- Plant response rating, Ryegrass, Italian [10, 15]: 65
- Plant response rating, Ryegrass, Italian [10, 16]: 85
- Ryegrass, Italian plant response rating [10, 17]: 60
- Soybean plant response rating (soybean (Glycine max); [14]): 0
- Plant response rating, Soybean (soybean (Glycine max); [15]): 5
- Plant response rating, Soybean (soybean (Glycine max); [16]): 5
- Soybean plant response rating (soybean (Glycine max); [17]): 0
- Velvetleaf plant response rating [11, 14]: 10
- Plant response rating, Velvetleaf [11, 15]: 40
- Plant response rating, Velvetleaf [11, 16]: 40
- Velvetleaf plant response rating [11, 17]: 20
- Waterhemp plant response rating [12, 14]: 5
- Plant response rating, Waterhemp [12, 15]: 50
- Plant response rating, Waterhemp [12, 16]: 40
- Waterhemp plant response rating [12, 17]: 10
- Kochia plant response rating (kochia (Kochia scoparia); [14]): 85
- Plant response rating, Kochia (kochia (Kochia scoparia); [15]): 90
- Plant response rating, Kochia (kochia (Kochia scoparia); [16]): 90
- Kochia plant response rating (kochia (Kochia scoparia); [17]): 85
- Oat, Wild plant response rating [13, 14]: 10
- Plant response rating, Oat, Wild [13, 15]: 40
- Plant response rating, Oat, Wild [13, 16]: 45
- Oat, Wild plant response rating [13, 17]: 30
